From patent publication US20210221866A1, “PROTEASE-RESISTANT LIPIDATED GLP-1 ANALOGS” (MEDIMMUNE LIMITED, priority 2015, published 2021)
Like-named read-outs stand apart in the source and are kept apart here. Numbered stars: 1 amine (or outer) side, 2 acyl side, 3 side chain; on linkers, the order of the positions; unused ones are H or OH. Square brackets hold non-standard residues; d marks the D form. Side chains are listed from the residue outwards. Peptide text beside a SMILES is read from it. * marks the point of attachment. C18 diacid = O=C(O)CCCCCCCCCCCCCCCCC(=O)*; γGlu = O=C(O)[C@H](CCC(=O)[*:2])N[*:1]; αMeF = C[C@](N)(Cc1ccccc1)C(=O)O; αMeK = C[C@](N)(CCCCN)C(=O)O; Lauroyl = CCCCCCCCCCCC(=O)*; αMeS = C[C@](N)(CO)C(=O)O; AEEA = NCCOCCOCC(=O)O; Aib = CC(C)(N)C(=O)O

Molecular target: T1, human GLP-1 receptor (GLP-1R) (Homo sapiens, UniProt P43220)
T1 construct: expressed in transfected cells; host or cells: HEK293 cells or CHO cells
Assay: cAMP assay, human GLP-1R cells
Type: cell-based
Experimental: Sample dilutions are made in duplicate.
A frozen cryo-vial of cells expressing the receptor of interest is thawed rapidly in a water-bath, transferred to pre-warmed assay buffer and spun at 240×g for 5 minutes. Cells are re-suspended in assay buffer at a batch-dependent optimized concentration (e.g. hGCGR cells at 2×10^5 cells/ml, hGLP-1R and hGIPR cells at 1×10^5 cells/ml).
To this, 5 μL cell suspension is added and the plates incubated at room temperature for 30 minutes.
cAMP levels are measured using a commercially available cAMP dynamic 2 HTRF kit (Cisbio, Cat #62AM4PEJ), following the two step protocol as per manufacturer's recommendations. In brief; anti-cAMP cryptate (donor fluorophore) and cAMP-d2 (acceptor fluorophore) are made up separately by diluting each 1/20 in conjugate & lysis buffer provided in the kit. 5 μL anti-cAMP cryptate is added to wells of the assay plate, and 5 μL cAMP-d2 is added to wells except non-specific binding (NSB) wells, to which conjugate and lysis buffer are added. […] EC50 values of the synthetic peptides determined in cAMP assays are then determined.
Data is transformed to % Delta F as described in the manufacturer's guidelines and analyzed by 4-parameter logistic fit to determine EC50 values. […] To compare the balance of activities at the GLP-1R and GCGR between different peptides and across different conditions, these can be correlated, where the EC50's are related to those of comparator peptides.

[1] = cAMP activity, mean of n1 and n2, read-out: Mean pM GLP-1R

T1 sequence (P43220 24-463): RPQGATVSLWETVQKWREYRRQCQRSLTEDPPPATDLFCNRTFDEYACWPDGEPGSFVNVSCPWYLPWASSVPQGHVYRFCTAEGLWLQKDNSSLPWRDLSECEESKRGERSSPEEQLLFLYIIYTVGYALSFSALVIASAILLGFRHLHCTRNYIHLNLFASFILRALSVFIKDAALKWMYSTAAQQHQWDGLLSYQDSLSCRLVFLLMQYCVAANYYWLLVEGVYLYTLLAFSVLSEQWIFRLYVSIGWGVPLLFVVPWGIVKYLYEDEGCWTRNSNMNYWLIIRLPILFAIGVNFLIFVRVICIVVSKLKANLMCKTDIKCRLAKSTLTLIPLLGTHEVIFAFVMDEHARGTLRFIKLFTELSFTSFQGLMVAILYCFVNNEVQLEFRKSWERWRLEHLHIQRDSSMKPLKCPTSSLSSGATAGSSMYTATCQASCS

Row | Compound | EC50 [1] [pM] | other results
1 | CC[C@H](C)[C@H](NC(=O)[C@](C)(Cc1ccccc1)NC(=O)[C@H](CCC(=O)O)NC(=O)[C@](C)(CCCCN)NC(=O)[C@H](C)NC(=O)[C@H](CCCCNC(=O)COCCOCCNC(=O)COCCOCCNC(=O)CC[C@H](NC(=O)CCCCCCCCCCCCCCCCC(=O)O)C(=O)O)NC(=O)[C@H](CCC(=O)O)NC(=O)CNC(=O)[C@H](CCC(=O)O)NC(=O)[C@H](CC(C)C)NC(=O)[C@](C)(Cc1ccccc1)NC(=O)[C@H](CO)NC(=O)[C@](C)(CO)NC(=O)[C@@H](NC(=O)[C@H](CC(=O)O)NC(=O)[C@H](CO)NC(=O)[C@@H](NC(=O)[C@](C)(Cc1ccccc1)NC(=O)[C@H](CO)NC(=O)CNC(=O)[C@H](CCC(=O)O)NC(=O)C(C)(C)NC(=O)[C@@H](N)Cc1c[nH]cn1)[C@@H](C)O)C(C)C)C(=O)N[C@@H](C)C(=O)N[C@@](C)(Cc1ccccc1)C(=O)N[C@H](C(=O)N[C@H](C(=O)N[C@@](C)(CCCCN)C(=O)NCC(=O)NCC(N)=O)C(C)C)C(C)C [compound 111] (H-H[Aib]EGS[αMeF]TSDV[αMeS]S[αMeF]LEGEK([AEEA-AEEA-γGlu-C18 diacid])A[αMeK]E[αMeF]IA[αMeF]VV[αMeK]GG-NH2; N-terminus assumed) | 17 | –
2 | CC[C@H](C)[C@H](NC(=O)[C@](C)(Cc1ccccc1)NC(=O)[C@H](CCC(=O)O)NC(=O)[C@](C)(CCCCN)NC(=O)[C@H](C)NC(=O)[C@H](C)NC(=O)[C@H](CCCCNC(=O)COCCOCCNC(=O)COCCOCCNC(=O)CC[C@H](NC(=O)CCCCCCCCCCCCCCCCC(=O)O)C(=O)O)NC(=O)CNC(=O)[C@H](CCC(=O)O)NC(=O)[C@H](CC(C)C)NC(=O)[C@](C)(Cc1ccccc1)NC(=O)[C@H](CO)NC(=O)[C@](C)(CO)NC(=O)[C@@H](NC(=O)[C@H](CC(=O)O)NC(=O)[C@H](CO)NC(=O)[C@@H](NC(=O)[C@](C)(Cc1ccccc1)NC(=O)[C@H](CO)NC(=O)CNC(=O)[C@H](CCC(=O)O)NC(=O)C(C)(C)NC(=O)[C@@H](N)Cc1c[nH]cn1)[C@@H](C)O)C(C)C)C(=O)N[C@@H](C)C(=O)N[C@@](C)(Cc1ccccc1)C(=O)N[C@H](C(=O)N[C@H](C(=O)N[C@@](C)(CCCCN)C(=O)NCC(=O)NCC(N)=O)C(C)C)C(C)C [compound 112] (H-H[Aib]EGS[αMeF]TSDV[αMeS]S[αMeF]LEGK([AEEA-AEEA-γGlu-C18 diacid])AA[αMeK]E[αMeF]IA[αMeF]VV[αMeK]GG-NH2; N-terminus assumed) | 6 | –
3 | CC[C@H](C)[C@H](NC(=O)[C@H](Cc1ccccc1)NC(=O)[C@H](CCC(=O)O)NC(=O)[C@H](CCCCN)NC(=O)[C@H](C)NC(=O)[C@H](C)NC(=O)[C@H](CCC(N)=O)NC(=O)CNC(=O)[C@H](CCC(=O)O)NC(=O)[C@H](CC(C)C)NC(=O)[C@H](Cc1ccc(O)cc1)NC(=O)[C@H](CO)NC(=O)[C@H](CO)NC(=O)[C@@H](NC(=O)[C@H](CC(=O)O)NC(=O)[C@H](CO)NC(=O)[C@@H](NC(=O)[C@H](Cc1ccccc1)NC(=O)[C@@H](NC(=O)CNC(=O)[C@H](CCC(=O)O)NC(=O)C(C)(C)NC(=O)[C@@H](N)Cc1c[nH]cn1)[C@@H](C)O)[C@@H](C)O)C(C)C)C(=O)N[C@@H](C)C(=O)N[C@@H](Cc1c[nH]c2ccccc12)C(=O)N[C@@H](CC(C)C)C(=O)N[C@H](C(=O)N[C@@H](CCCCN)C(=O)NCC(=O)N[C@@H](CCCNC(=N)N)C(=O)N[C@@H](CCCCNC(=O)COCCOCCNC(=O)COCCOCCNC(=O)CC[C@H](NC(=O)CCCCCCCCCCCCCCCCC(=O)O)C(=O)O)C(N)=O)C(C)C [compound 6] | 5.1 | –
4 | CCCCCCCCCCCC(=O)N[C@@H](CCC(=O)NCCOCCOCC(=O)NCCOCCOCC(=O)NCCCC[C@H](NC(=O)[C@H](C)NC(=O)[C@@H](NC(=O)[C@H](Cc1ccccc1)NC(=O)[C@H](CCC(=O)O)NC(=O)[C@](C)(CCCCN)NC(=O)[C@H](C)NC(=O)[C@H](CCCCNC(=O)COCCOCCNC(=O)COCCOCCNC(=O)CC[C@H](NC(=O)CCCCCCCCCCC)C(=O)O)NC(=O)[C@H](CCC(=O)O)NC(=O)CNC(=O)[C@H](CCC(=O)O)NC(=O)[C@H](CC(C)C)NC(=O)[C@H](Cc1ccc(O)cc1)NC(=O)[C@H](CO)NC(=O)[C@H](CO)NC(=O)[C@H](CCCCNC(=O)COCCOCCNC(=O)COCCOCCNC(=O)CC[C@H](NC(=O)CCCCCCCCCCC)C(=O)O)NC(=O)[C@H](CC(=O)O)NC(=O)[C@H](CO)NC(=O)[C@@H](NC(=O)[C@](C)(Cc1ccccc1)NC(=O)[C@H](CO)NC(=O)CNC(=O)[C@H](CCC(=O)O)NC(=O)C(C)(C)NC(=O)[C@@H](N)Cc1c[nH]cn1)[C@@H](C)O)[C@@H](C)CC)C(=O)N[C@H](C(=O)N[C@H](C(=O)N[C@@H](CCC(=O)O)C(=O)NCC(=O)NCC(N)=O)C(C)C)C(C)C)C(=O)O [compound 457] (H-H[Aib]EGS[αMeF]TSDK([AEEA-AEEA-γGlu-Lauroyl])SSYLEGEK([AEEA-AEEA-γGlu-Lauroyl])A[αMeK]EFIAK([AEEA-AEEA-γGlu-Lauroyl])VVEGG-NH2; N-terminus assumed) | – | EC50 (Table 11, tris-lipidated peptides, mean of n1 and n2, read-out: Primary assay EC50 Mean pM GLP-1R): 142 pM; EC50 (Table 11, tris-lipidated peptides, replicate n1, read-out: Primary assay EC50 GLP-1R n1): 127 pM; EC50 (Table 11, tris-lipidated peptides, replicate n2, read-out: Primary assay EC50 GLP-1R n2): 156 pM

The next lines start with results.

Row | EC50 [1] [pM] | Compound | other results
5 | 227 | CC[C@H](C)[C@H](NC(=O)[C@](C)(Cc1ccccc1)NC(=O)[C@H](CCC(=O)O)NC(=O)[C@H](CCCCNC(=O)CC[C@H](NC(=O)CC[C@H](NC(=O)CC[C@H](NC(=O)CCCCCCCCCCCCCCCCC(=O)O)C(=O)O)C(=O)O)C(=O)O)NC(=O)[C@H](C)NC(=O)[C@H](C)NC(=O)[C@H](CCC(=O)O)NC(=O)CNC(=O)[C@H](CCC(=O)O)NC(=O)[C@H](CC(C)C)NC(=O)[C@](C)(Cc1ccccc1)NC(=O)[C@H](CO)NC(=O)[C@](C)(CO)NC(=O)[C@@H](NC(=O)[C@H](CC(=O)O)NC(=O)[C@H](CO)NC(=O)[C@@H](NC(=O)[C@](C)(Cc1ccccc1)NC(=O)[C@H](CO)NC(=O)CNC(=O)[C@H](CCC(=O)O)NC(=O)C(C)(C)NC(=O)[C@@H](N)Cc1c[nH]cn1)[C@@H](C)O)C(C)C)C(=O)N[C@@H](C)C(=O)N[C@@](C)(Cc1ccccc1)C(=O)N[C@H](C(=O)N[C@H](C(=O)N[C@@](C)(CCCCN)C(=O)NCC(=O)NCC(N)=O)C(C)C)C(C)C [compound 157] | –
6 | 105 | CC[C@H](C)[C@H](NC(=O)[C@](C)(Cc1ccccc1)NC(=O)[C@H](CCC(=O)O)NC(=O)[C@H](CCCCNC(=O)CC[C@H](NC(=O)CC[C@H](NC(=O)CCCCCCCCCCCCCCCCC(=O)O)C(=O)O)C(=O)O)NC(=O)[C@H](C)NC(=O)[C@H](C)NC(=O)[C@H](CCC(=O)O)NC(=O)CNC(=O)[C@H](CCC(=O)O)NC(=O)[C@H](CC(C)C)NC(=O)[C@](C)(Cc1ccccc1)NC(=O)[C@H](CO)NC(=O)[C@](C)(CO)NC(=O)[C@@H](NC(=O)[C@H](CC(=O)O)NC(=O)[C@H](CO)NC(=O)[C@@H](NC(=O)[C@](C)(Cc1ccccc1)NC(=O)[C@H](CO)NC(=O)CNC(=O)[C@H](CCC(=O)O)NC(=O)C(C)(C)NC(=O)[C@@H](N)Cc1c[nH]cn1)[C@@H](C)O)C(C)C)C(=O)N[C@@H](C)C(=O)N[C@@](C)(Cc1ccccc1)C(=O)N[C@H](C(=O)N[C@H](C(=O)N[C@@](C)(CCCCN)C(=O)NCC(=O)NCC(N)=O)C(C)C)C(C)C [compound 156] | –
